Test results from US4096174A, “Anionic naphthalene thioureido-diphenyloxides” (American Cyanamid Company, priority 1977, dated 1978).
Counter-ions that a name gives are not always drawn.

How the values were obtained:
[1] = tested on: late components of human complement (C3-C9); test: Test, Code 035 (C3-C9 inhibitor), lysis of EAC 142; type: biochemical; conditions: two-fold serial dilution assay; higher well number indicates higher activity
Source text: An active inhibitor protects C2 from C1 and C4; (ii) Test, Code 035 (C3-C9 inhibitor) - This test determines the ability of the late components of human complement (C3-C9) to lyse EAC 142 in the presence of appropriate dilutions of the test compound. An active inhibitor protects EAC 142 from lysis by human C3-C9; (iii) Test, Code 036 (C-Shunt inhibitor) - In this test human erythrocytes rendered fragile are lysed in autologous serum via the shunt pathway activated by cobra venom factor in the presence of appropriate dilutions of the test compound. Inhibition of the shunt pathway results in failure of lysis; (iv) Forssman Vasculitis Test - Here, the well known complement dependent lesion, Forssman Vasculitis, is produced in guinea pigs by intradermal injection of rabbit anti-Forssman antiserum. […]

[2] = tested on: whole complement; test: Complement Level Reduction Test (in vivo, capillary tube assay of serum); parameters: species or system guinea pig; conditions: 200 mg/kg

O=S(=O)(O)c1cc(NC(=S)Nc2ccc(Oc3ccc(NC(=S)Nc4cc(S(=O)(=O)O)cc5cc(S(=O)(=O)O)cc(S(=O)(=O)O)c45)c(NC(=S)Nc4cc(S(=O)(=O)O)cc5cc(S(=O)(=O)O)cc(S(=O)(=O)O)c45)c3)cc2NC(=S)Nc2cc(S(=O)(=O)O)cc3cc(S(=O)(=O)O)cc(S(=O)(=O)O)c23)c2c(S(=O)(=O)O)cc(S(=O)(=O)O)cc2c1 [8,8',8",8'"-{Oxybis[4,1,2-phenylbis(2-thioureylene)]}-tetra-1,3,6-naphthalenetrisulfonic acid dodecasodium salt]
C-Late 035 Wells [1]: +2 Wells | In Vivo Activity (Guinea Pig) % Inhibition ([2]; Intraperitoneal, 30 minutes): -82% | In Vivo Activity (Guinea Pig) % Inhibition ([2]; Intraperitoneal, 60 minutes): -88% | In Vivo Activity (Guinea Pig) % Inhibition ([2]; Intraperitoneal, 120 minutes): -94% | In Vivo Activity (Guinea Pig) % Inhibition ([2]; Intravenous, 2 minutes): -98% | In Vivo Activity (Guinea Pig) % Inhibition ([2]; Intravenous, 30 minutes): -95% | In Vivo Activity (Guinea Pig) % Inhibition ([2]; Intravenous, 120 minutes): -91%
